From ChEMBL document CHEMBL5506008, “Synthesis and biological evaluation of 1-phenyl-tetrahydro-β-carboline-based first dual PRMT5/EGFR inhibitors as potential anticancer agents” (Eur J Med Chem, 2024)
pIC50: −log10 of the molar value.

Key:
[1] = target: Protein arginine N-methyltransferase 5 (Homo sapiens, UniProt O14744); assay: Inhibition of PRMT5 (unknown origin) by radiometric-based scintillation proximity assay
[2] = target: Epidermal growth factor receptor (Homo sapiens, UniProt P00533); assay: Inhibition of wild type GST-tagged EGFR catalytic domain (unknown origin) expressed in insect cells using poly(Glu-Tyr) as substrate incubated for 6 mins by ELISA; parameters: species or system Insect cell
[3] = Metabolic stability in human liver microsomes assessed as compound remaining at […] measured after 30 mins in presence of NADPH by LC-MS/MS analysis; assay type: ADME, Microsome; settings: read-out: Stability
[4] = Metabolic stability in rat liver microsomes assessed as compound remaining at […] measured after 30 mins in presence of NADPH by LC-MS/MS analysis; assay type: ADME, Microsome; settings: read-out: Stability
A549 = assay: Antiproliferative activity against human A549 cells assessed as inhibition of cell growth by CCK-8 assay
MCF7 = assay: Antiproliferative activity against human MCF7 cells assessed as inhibition of cell growth by CCK-8 assay
HeLa = assay: Antiproliferative activity against human HeLa cells assessed as inhibition of cell growth by CCK-8 assay
MDA-MB-231 = assay: Antiproliferative activity against human MDA-MB-231 cells assessed as inhibition of cell growth by CCK-8 assay
HepG2 = assay: Antiproliferative activity against human HepG2 cells assessed as inhibition of cell growth by CCK-8 assay

Chain of Protein arginine N-methyltransferase 5 (O14744 whole entry, the tested form may be a part): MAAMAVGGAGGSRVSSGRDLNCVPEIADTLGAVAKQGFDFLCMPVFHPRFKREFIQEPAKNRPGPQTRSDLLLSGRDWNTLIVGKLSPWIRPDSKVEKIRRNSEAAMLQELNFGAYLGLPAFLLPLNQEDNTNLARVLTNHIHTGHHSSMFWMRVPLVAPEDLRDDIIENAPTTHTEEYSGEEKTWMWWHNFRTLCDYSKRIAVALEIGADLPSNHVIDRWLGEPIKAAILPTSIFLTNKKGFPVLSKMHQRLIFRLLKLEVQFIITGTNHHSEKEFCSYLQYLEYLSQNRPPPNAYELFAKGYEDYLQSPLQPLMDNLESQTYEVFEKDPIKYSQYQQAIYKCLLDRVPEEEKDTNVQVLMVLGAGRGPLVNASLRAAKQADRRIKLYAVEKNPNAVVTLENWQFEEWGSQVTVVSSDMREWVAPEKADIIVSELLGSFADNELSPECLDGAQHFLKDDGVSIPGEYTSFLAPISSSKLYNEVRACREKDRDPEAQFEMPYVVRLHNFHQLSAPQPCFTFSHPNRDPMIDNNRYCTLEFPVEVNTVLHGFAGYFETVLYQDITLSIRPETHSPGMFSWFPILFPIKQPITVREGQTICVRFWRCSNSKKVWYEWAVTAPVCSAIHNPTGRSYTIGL
Chain of Epidermal growth factor receptor (P00533 whole entry, the tested form may be a part): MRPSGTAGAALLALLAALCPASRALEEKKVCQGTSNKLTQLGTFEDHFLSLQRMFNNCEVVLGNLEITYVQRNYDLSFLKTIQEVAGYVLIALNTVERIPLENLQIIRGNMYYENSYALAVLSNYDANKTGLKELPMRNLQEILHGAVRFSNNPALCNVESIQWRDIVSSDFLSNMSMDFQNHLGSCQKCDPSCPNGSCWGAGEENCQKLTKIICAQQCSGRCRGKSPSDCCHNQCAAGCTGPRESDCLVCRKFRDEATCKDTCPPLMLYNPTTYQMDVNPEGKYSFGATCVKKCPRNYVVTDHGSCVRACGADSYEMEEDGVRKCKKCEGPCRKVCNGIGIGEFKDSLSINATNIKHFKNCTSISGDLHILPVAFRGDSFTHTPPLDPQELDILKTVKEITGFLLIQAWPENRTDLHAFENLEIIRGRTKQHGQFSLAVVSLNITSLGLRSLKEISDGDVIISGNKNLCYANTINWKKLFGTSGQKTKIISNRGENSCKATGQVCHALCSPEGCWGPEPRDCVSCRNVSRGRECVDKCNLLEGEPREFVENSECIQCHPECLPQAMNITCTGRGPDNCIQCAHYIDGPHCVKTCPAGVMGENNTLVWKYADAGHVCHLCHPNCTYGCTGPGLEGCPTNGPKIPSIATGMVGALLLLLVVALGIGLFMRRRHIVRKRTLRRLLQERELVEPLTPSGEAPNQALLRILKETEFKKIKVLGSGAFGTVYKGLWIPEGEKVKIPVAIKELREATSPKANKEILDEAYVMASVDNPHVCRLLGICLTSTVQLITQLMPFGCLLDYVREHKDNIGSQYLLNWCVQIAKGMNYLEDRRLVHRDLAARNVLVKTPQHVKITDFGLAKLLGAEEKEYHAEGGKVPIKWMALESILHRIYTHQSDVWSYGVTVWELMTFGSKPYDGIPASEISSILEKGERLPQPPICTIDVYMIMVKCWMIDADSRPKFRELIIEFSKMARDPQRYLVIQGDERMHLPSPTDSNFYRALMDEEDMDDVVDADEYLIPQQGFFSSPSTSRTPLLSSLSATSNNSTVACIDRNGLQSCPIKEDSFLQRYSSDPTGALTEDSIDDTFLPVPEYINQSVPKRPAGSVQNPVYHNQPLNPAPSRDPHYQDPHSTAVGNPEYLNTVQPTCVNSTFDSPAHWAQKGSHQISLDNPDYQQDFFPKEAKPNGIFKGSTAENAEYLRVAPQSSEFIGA

| SMILES | pIC50 [1] | pIC50 [2] | also measured |
| --- | --- | --- | --- |
| COc1cc(C2NCCc3c2[nH]c2ccccc32)ccc1OCc1ccc(B2OC(C)(C)C(C)(C)O2)cc1 (stereo not drawn) | < 4.00 | 4.07 |  |
| COc1cc(C2NCCc3c2[nH]c2ccccc32)ccc1OCc1ccc(F)c(C#N)c1 (stereo not drawn) | < 4.00 | < 4.00 |  |
| O=C(Nc1ccc(C2NCCc3c2[nH]c2ccccc32)cc1)c1ccc(Br)cc1 (stereo not drawn) | < 4.00 |  |  |
| O=C(Nc1ccc(C2NCCc3c2[nH]c2ccccc32)cc1)c1ccc(C(F)(F)F)cc1 (stereo not drawn) | < 4.00 |  |  |
| Cc1cccc(C(=O)Nc2ccc(C3NCCc4c3[nH]c3ccccc43)cc2)c1 (stereo not drawn) | < 4.00 |  |  |
| COc1cc(C2NCCc3c2[nH]c2ccccc32)ccc1OC(=O)c1ccccc1 (stereo not drawn) | 4.31 | 4.37 | remaining at 0.5 h [3]: 20.6%; remaining at 0.5 h [4]: 15.1% |
| O=C(Nc1ccc(C2NCCc3c2[nH]c2ccccc32)cc1)c1ccc(F)c(C(F)(F)F)c1 (stereo not drawn) | 4.18 | < 4.00 |  |
| CN1CCc2c([nH]c3ccccc23)C1c1ccc(NC(=O)c2ccc(F)c(C(F)(F)F)c2)cc1 (stereo not drawn) | < 4.00 | < 4.00 |  |
| CN1CCc2c([nH]c3ccccc23)C1c1ccc(NC(=O)c2cccc(C(F)(F)F)c2)cc1 (stereo not drawn) | < 4.00 | < 4.00 |  |
| O=C(Nc1ccc(C2NCCc3c2[nH]c2ccccc32)cc1)c1ccccc1 (stereo not drawn) | 4.13 | 4.25 |  |
| O=C(Oc1ccc(C2NCCc3c2[nH]c2ccccc32)cc1)c1ccccc1 (stereo not drawn) | 4.22 | 4.29 | remaining at 0.5 h [3]: 16.4%; remaining at 0.5 h [4]: 12.3% |
| COC(=O)c1ccc(COc2ccc(C3NCCc4c3[nH]c3ccccc43)cc2OC)c(F)c1 (stereo not drawn) | < 4.00 | 4.25 |  |
| COc1cc(C2NCCc3c2[nH]c2ccccc32)ccc1OCc1ccc(F)cc1 (stereo not drawn) | < 4.00 | < 4.00 |  |
| O=C(Nc1ccc(C2NCCc3c2[nH]c2ccccc32)cc1)c1ccccc1F (stereo not drawn) | < 4.00 |  |  |
| CN1CCc2c([nH]c3ccccc23)C1c1ccc(NC(=O)c2cccc(Cl)c2)cc1 (stereo not drawn) | < 4.00 | < 4.00 |  |
| COc1cc(C2NCCc3c2[nH]c2ccccc32)ccc1OCc1ccccc1 (stereo not drawn) | 4.49 | < 4.00 |  |
| Cc1ccccc1C(=O)Nc1ccc(C2NCCc3c2[nH]c2ccccc32)cc1 (stereo not drawn) | < 4.00 |  |  |
| COc1cc(C2c3[nH]c4ccccc4c3CCN2C)ccc1OC(=O)c1ccccc1 (stereo not drawn) | < 4.00 | 4.06 |  |
| O=C(Nc1ccc(C2NCCc3c2[nH]c2ccccc32)cc1)c1cccc([N+](=O)[O-])c1 (stereo not drawn) | 4.10 | 4.22 |  |
| CN1CCc2c([nH]c3ccccc23)C1c1ccc(OC(=O)c2ccccc2)cc1 (stereo not drawn) | < 4.00 | < 4.00 |  |

| SMILES | pIC50 [1] | pIC50 [2] | also measured |
| --- | --- | --- | --- |
| COc1cc(COc2ccc(C3NCCc4c3[nH]c3ccccc43)cc2OC)ccc1F (stereo not drawn) | 4.63 | < 4.00 |  |
| COc1cc(C2NCCc3c2[nH]c2ccccc32)ccc1OCc1ccc(C(C)(C)C)cc1 (stereo not drawn) | 4.37 | 4.60 | pIC50 (A549): 4.91; pIC50 (MCF7): 5.42; pIC50 (HeLa): 5.35; pIC50 (MDA-MB-231): 4.69; pIC50 (HepG2): 4.58; remaining at 0.5 h [3]: 50.6%; remaining at 0.5 h [4]: 45.4% |
| COc1cc(C2NCCc3c2[nH]c2ccccc32)ccc1OCc1ccc(OC(F)(F)F)c(Cl)c1 (stereo not drawn) | 4.33 | 4.20 | pIC50 (A549): 4.88; pIC50 (MCF7): 5.18; pIC50 (HeLa): 5.16; pIC50 (MDA-MB-231): 4.88; pIC50 (HepG2): 4.39; remaining at 0.5 h [3]: 70%; remaining at 0.5 h [4]: 76.6% |
| CN1CCc2c([nH]c3ccccc23)C1c1ccc(NC(=O)c2cccc([N+](=O)[O-])c2)cc1 (stereo not drawn) | < 4.00 | < 4.00 |  |
| CN1CCc2c([nH]c3ccccc23)C1c1ccc(NC(=O)c2ccccc2)cc1 (stereo not drawn) | < 4.00 | < 4.00 |  |
| COc1cc(C2NCCc3c2[nH]c2ccccc32)ccc1OCc1ccc(F)c(C(F)(F)F)c1 (stereo not drawn) | < 4.00 | < 4.00 |  |
| O=C(Nc1ccc(C2NCCc3c2[nH]c2ccccc32)cc1)c1cccc(F)c1 (stereo not drawn) | 4.14 | 4.02 |  |
| COc1cc(C2NCCc3c2[nH]c2ccccc32)ccc1OCc1ccccc1F (stereo not drawn) | 4.25 | < 4.00 |  |
| O=C(Nc1ccc(C2NCCc3c2[nH]c2ccccc32)cc1)c1cccc(C(F)(F)F)c1 (stereo not drawn) | 4.06 | 4.13 |  |
| O=C(Nc1ccc(C2NCCc3c2[nH]c2ccccc32)cc1)c1ccc(F)cc1 (stereo not drawn) | < 4.00 |  |  |
| COc1cc(C2NCCc3c2[nH]c2ccccc32)ccc1OCc1ccc(F)cc1Cl (stereo not drawn) | 4.12 | < 4.00 |  |
| COc1cc(C2NCCc3c2[nH]c2ccccc32)ccc1OCc1ccc(F)c(Br)c1 (stereo not drawn) | 4.38 | 4.29 | pIC50 (A549): 5.15; pIC50 (MCF7): 5.15; pIC50 (HeLa): 5.16; pIC50 (MDA-MB-231): < 4.30; pIC50 (HepG2): 4.44; remaining at 0.5 h [3]: 65.4%; remaining at 0.5 h [4]: 57.8% |
| COC(=O)c1ccc(C(=O)Nc2ccc(C3NCCc4c3[nH]c3ccccc43)cc2)cc1 (stereo not drawn) | < 4.00 |  |  |
| O=C(Nc1ccc(C2NCCc3c2[nH]c2ccccc32)cc1)c1cc(C(F)(F)F)cc(C(F)(F)F)c1 (stereo not drawn) | < 4.00 |  |  |
| COc1cc(C2NCCc3c2[nH]c2ccccc32)ccc1OCc1ccc(F)cc1Br (stereo not drawn) | 4.43 | 4.13 | pIC50 (A549): 4.88; pIC50 (MCF7): 5.13; pIC50 (HeLa): 5.15; pIC50 (MDA-MB-231): 4.89; pIC50 (HepG2): < 4.30; remaining at 0.5 h [3]: 61.1%; remaining at 0.5 h [4]: 66.5% |
| O=C(Nc1ccc(C2NCCc3c2[nH]c2ccccc32)cc1)c1ccc([N+](=O)[O-])cc1 (stereo not drawn) | < 4.00 |  |  |
| O=C(Nc1ccc(C2NCCc3c2[nH]c2ccccc32)cc1)c1cccc(Cl)c1 (stereo not drawn) | 4.33 |  |  |
| CN1CCc2c([nH]c3ccccc23)C1c1ccc(NC(=O)c2cccc(F)c2)cc1 (stereo not drawn) | < 4.00 | < 4.00 |  |
| COc1cc(C2NCCc3c2[nH]c2ccccc32)ccc1OCc1ccc(C#N)cc1F (stereo not drawn) | 4.15 | 4.09 | pIC50 (A549): 4.89; pIC50 (MCF7): 4.88; pIC50 (HeLa): 4.87; pIC50 (MDA-MB-231): 5.21; pIC50 (HepG2): < 4.30; remaining at 0.5 h [3]: 40.6%; remaining at 0.5 h [4]: 35.9% |
| O=C(Nc1ccc(C2NCCc3c2[nH]c2ccccc32)cc1)c1ccc(Cl)cc1 (stereo not drawn) | < 4.00 |  |  |
